How the values were obtained:
[1] = system: P-glycoprotein (P-gp); test: Western blotting of P-gp after siRNA knockdown in MCF7/ADR cells; format: cell-based, human; settings: gene silenced with siRNA 20 nM, FIG. 7
Description: (§1) Proteins were electrophoresed on SDS-PAGE, and the separated proteins were transferred to a nitrocellulose membrane (Whatman), and then blocked at room temperature for 15 minutes in a TBS-5% non-fat milk solution supplemented with 0.1% Tween-20. The membrane was cultured overnight with a primary antibody at 4° C., cultured with a horseradish peroxidase-conjugated secondary antibody at room temperature for an hour, and developed using a West Pico chemiluminescent substrate (PIERCE).
(§2) The primary antibodies used herein were P-gp (Cell Signaling Technology, #12683, 1:1000), p-PI3K (Santa Cruz Biotechnology, sc-12929, 1:500), PI3K (Santa Cruz Biotechnology, sc-1637, 1:500), p-Akt (Cell Signaling Technology, #9271, 1:1000), Akt (Cell Signaling Technology, #9272, 1:1000), β-catenin (Cell Signaling Technology, #9562, 1:1000), and β-actin (Santa Cruz Biotechnology, sc-47778, 1:500).
(§3) siRNA transfection was performed using a Neon® Transfection system (Life technologies). After 48 hours, the expression of each gene was analyzed using qRT-PCR.
To further evaluate whether the six genes finally screened in Example 4 regulated the drug resistance and the size and number of CSC populations, the genes were knocked down with siRNA, and an expression level of P-gp was determined using western blotting. That is, the MCF7/ADR cells were transfected with siRNA of each gene, and an expression level of P-gp was measured.

[2] = system: MCF7/ADR cells; test: qRT-PCR of CSC, resistance and EMT markers after siRNA silencing; format: cell-based, human; settings: for mRNA expression of markers (CD44, Integrin-α6, P-gp, Vimentin, N-cadherin, E-cadherin): FIG. 8A; for mRNA expression of markers (CD44, N-cadherin): FIG. 8B
Description: Total RNAs were extracted from the cultured cells using a TRIzoL reagent (Invitrogen), and cDNAs were synthesized using a cDNA synthetic kit (Promega) for reverse transcription-PCR.
In this case, the real-time PCR was performed in a Bio-Rad Real-Time PCR system using a SYBR Green PCR Master mix (Applied Biosystems), and the data was obtained by calculating an average value for separate experiments performed in at least triplicate.
as §3
Therefore, to determine whether EXT1, LDHB, CD109, EFEMP2, RASIP1, and SERPINE1 were associated with the aggressive phenotype of cancer, the mRNA expression levels of cancer stem cell markers (CD44, and Integrin-α6 (ITGA6)), a resistance marker (P-gp), and EMT markers (Vimentin, N-cadherin, and E-cadherin) were determined using qRT-PCR.

[3] = system: MCF7/ADR cells; test: CD44+/CD24− assay (flow cytometric assay) after siRNA silencing; format: cell-based, human; settings: for CD44+/CD24− population decreased by: MCF7/ADR cells transfected with siRNA, FIG. 9A; for number of the cancer stem cells: genes silenced in the resistant cells, summary statement
Description: To detect cancer stem cells (CSCs) in the MCF7 and MCF7/ADR cells, a breast cancer stem cell surface antigen, CD44+/CD24−, was assayed.
Specifically, the 1×10^6 cells were labeled with anti-human CD44-APC and CD24-PE (BD biosciences). In this case, the antibody was diluted with a 5% BSA solution. The cells were cultured at room temperature for 25 minutes, washed, re-suspended in […] of 5% BSA, and then detected using BD FACS Aria III.
as §3

[4] = system: MCF7/ADR cells; test: ALDEFLUOR assay (ALDH+ population) after siRNA silencing; format: cell-based, human; settings: MCF7/ADR cells transfected with siRNA; FIG. 9B
Description: Specifically, the cells were stained with […] bodipyaminoacetaldehyde (BAAA), and then cultured at 37° C. for 45 minutes. An ALDH1 inhibitor, diethylaminobenzaldehyde (DEAB), was used as the negative control. The 1 ×10^6 stained cells were assayed using BD FACS Aria III. In this case, the positive fluorescent ALDH1-expressed cells (ALDH+) were detected in a green fluorescent channel (520 to 540 nm).
as §3

[5] = system: MCF7/ADR cells; test: Mammosphere formation assay after siRNA silencing; format: cell-based, human; settings: for number and size of the mammospheres: MCF7/ADR cells, compared to the control, FIG. 10; for self-proliferation ability: genes silenced in the resistant cells, summary statement
Description: Since the breast cancer stem cells formed a mass of colonies in the form of floating spheres without attaching to a surface of a plate, the size and number of the masses were observed by a mammosphere formation assay to determine a cancer-stem-cell-specific effect.
Specifically, a single-cell suspension was cultured at a density of 1,000 to 15,000 cells/well (on an ultralow attachment culture plate (Corning CoStar)) using a MammoCult™ Human Medium kit (Stem Cell Technologies), and the spherical cells were counted and observed under a microscope.
as §3
To determine whether the EXT1 and LDHB regulated the self-renewal capacity of CSCs in the MCF7/ADR cells, a mammosphere formation assay was performed.

[6] = system: PI3K-β-catenin signaling pathway; test: Western blot of PI3K-β-catenin signaling pathway factors after siRNA treatment; format: cell-based, human; settings: MCF7/ADR cells treated with siRNA; FIG. 11
Description: as §1, §2, §3
Wnt signaling is a major pathway for maintaining stemness, and β-catenin is a particularly important regulator. Also, since the PI3K-Akt signaling pathway is known from previous research to regulate a Wnt-β-catenin signaling pathway, it was determined how the EXT1 and LDHB genes regulated the stemness, and whether the EXT1 and LDHB genes were associated with the pathways.
Therefore, it was confirmed that, when the MCF7/ADR cells were treated with siRNAs against the EXT1, LDHB, CD109, EFEMP2, RASIP1 and SERPINE1 genes (Table 3), the expression of β-catenin decreased, and the expression of phosphorylated PI3K (p-PI3K) in an active form of PI3K, and phosphorylated Akt (p-Akt) in an active form of Akt […] (see FIG. 11).

[7] = system: common cancer cells; test: Cell viability of common cancer cells under gene expression inhibitor; format: cell-based; settings: treatment with the gene expression inhibitor; summary statement
[8] = system: MCF7 and MCF7/ADR cells; test: MTT assay: cell viability against doxorubicin; format: cell-based, human; settings: MCF7/ADR cells compared with MCF7 cells; doxorubicin 0, 1, 2, 10, 25 μM; 24, 48, 72 hours; FIG. 2A
Description: A human breast cancer maternal cell line, MCF-7 (Korean Cell Line Bank), was continuously exposed to 1 μM of a drug, doxorubicin (Sigma). In this case, the maternal cell line was cultured in […] for at least one week to establish a breast cancer cell MCF7/ADR having induced drug resistance. Here, the cell culture was performed at 37° C. and 5% CO^2 in a DMEM medium (Hyclon, Logan, Utah) supplemented with 10% FBS and 1% penicillin.
To evaluate cytotoxicity of the anti-cancer agent (doxorubicin), a cell viability assay was performed using an MTT assay. First, cells were plated on a 96-well plate at a density of 5×10^3 cells/well, treated with the drug, and then cultured for 24, 48, and 72 hours. Thereafter, each well was treated with 5 mg/ml of MTT (AMRESCO), and the cells were cultured at 37° C. for 4 hours. Each well was treated with DMSO ([…]) to dissolve a formazan salt, and the amount of the formazan salt was determined by measuring an OD value at 540 nm using a microplate reader (Tecan Austria GmbH, Austria). […]
After 24, 48, and 72 hours when the MCF7 and MCF7/ADR cells were treated with doxorubicin (0, 1, 2, 10, and 25 μM), the cell viabilities were determined.

[9] = system: xenografted tumor; settings: administered to an animal into which tumor has been xenografted; cited from earlier work

Molecule	expression of P-glycoprotein [1]	mRNA expression of markers (CD44, Integrin-α6, P-gp, Vimentin, N-cadherin, E-cadherin) [2]	CD44+/CD24− population decreased by [3]	number of the cancer stem cells [3]	ALDH+ population decreased by [4]	number and size of the mammospheres [5]	self-proliferation ability [5]	expression of phosphorylated Akt (p-Akt) [6]	expression of phosphorylated PI3K (p-PI3K) [6]	expression of β-catenin [6]	cell viability of common cancer cells [7]	mRNA expression of markers (CD44, N-cadherin) [2]	cell viability against doxorubicin [8]	tumor size in xenografted animal [9]
siLDHB: siRNA against LDHB gene (Bioneer siRNA No. 1083399); sense SEQ ID NO: 3, anti-sense SEQ ID NO: 4 (sense GAUUCAUCCCGUGUCAACA; antisense UGUUGACACGGGAUGAAUC; listed as RNA, chemistry not given here)	down-regulated	reduced	~5.52%	decreased	~3.21%	significantly reduced	lowered	increased	increased	decreased	no change			
siEFEMP2: siRNA against EFEMP2 gene (Bioneer siRNA No. 1045872); sense SEQ ID NO: 7, anti-sense SEQ ID NO: 8 (sense CCCAAACCUGUGUCAACUU; antisense AAGUUGACACAGGUUUGGG; listed as RNA, chemistry not given here)	down-regulated			decreased			lowered	increased	increased	decreased	no change	reduced		
siCD109: siRNA against CD109 gene (Bioneer siRNA No. 1027641); sense SEQ ID NO: 5, anti-sense SEQ ID NO: 6 (sense GAGUACUGGAGCGGAUCUA; antisense UAGAUCCGUCCAGUACUC; listed as RNA, chemistry not given here)	down-regulated			decreased			lowered	increased	increased	decreased	no change	reduced		
COc1cccc2c1C(=O)c1c(O)c3c(c(O)c1C2=O)C[C@@](O)(C(=O)CO)C[C@@H]3O[C@H]1C[C@H](N)[C@H](O)[C@H](C)O1 [doxorubicin]													higher cell viability	
siSERPINE1: siRNA against SERPINE1 gene (Bioneer siRNA No. 1135690); sense SEQ ID NO: 11, anti-sense SEQ ID NO: 12 (sense CACACAAAAGGUAUGAUCA; antisense UGAUCAUACCUUUUGUGUG; listed as RNA, chemistry not given here)	down-regulated			decreased			lowered	increased	increased	decreased	no change	reduced		
CC1=C2C[C@H]3[C@@H](CC=C4C[C@@H](O)CC[C@@]43C)[C@@H]2CC[C@]12O[C@@H]1C[C@H](C)CN[C@H]1[C@H]2C [cyclopamine]														dramatically contracted
siEXT1: siRNA against EXT1 gene (Bioneer siRNA No. 1049149); sense SEQ ID NO: 1, anti-sense SEQ ID NO: 2 (sense CACUUCUGGAUAACUCUA; antisense UAGAGUUAUCCCAGAAGUG; listed as RNA, chemistry not given here)	down-regulated	reduced	approximately 5.09%	decreased	approximately 2.1%	significantly reduced	lowered	increased	increased	decreased	no change			
siRASIP1: siRNA against RASIP1 gene (Bioneer siRNA No. 1126933); sense SEQ ID NO: 9, anti-sense SEQ ID NO: 10 (sense CUGGAUAGUAACCCUUUCA; antisense UGAAAGGGUUACUAUCCAG; listed as RNA, chemistry not given here)	down-regulated			decreased			lowered	increased	increased	decreased	no change	reduced		
